According to patent publication US10875874B2, “Ginkgolide B derivative and preparation method and use thereof” (Chengdu Baiyu Ginkgolide Pharmaceuticals Co., Ltd., priority 2015, dated 2020):
In brackets after ≈: the same amount, converted by molar mass. Marks after values point to notes of the source that are not given here.

Key:
[1] = Weekly food intake of SHR rats; type: in vivo, rat
In short: (§1)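 Male and female SHR rats (200-250 g, 8/group) dosed intragastrically once daily for 8 weeks with test compounds at 60 or 120 mg/kg/d or captopril 27 mg/kg; Wistar and SHR controls received distilled water. Body weight and food intake observed during treatment.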

[2] = Weekly body weight of SHR rats; type: in vivo, rat
In short: as §1

Water solubility test = details: purified water, thermodynamic from solid
Description: Measuring method: samples are ground to obtain fine powder, target compounds are quantitatively weighed, the weighed compounds are added into purified water, and the solubility of the compounds is investigated by ultrasonics.

[3] = test system: spontaneously hypertensive rats (SHR); experiment: Caudal artery systolic pressure of spontaneously hypertensive rats, single administration; type: in vivo, rat; details: x ± s, n = 8
In short: (§2)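 SHR rats of both sexes (200–250 g, 8/group) dosed intragastrically with 60 or 120 mg/kg/d, or captopril 27 mg/kg, once daily for 8 weeks; Wistar rats and vehicle SHR served as controls. Tail-cuff systolic pressure taken as the mean of 3 readings, measured before dosing and 30–120 min after the first dose, or 30 min post-dose on days 1–56 for chronic treatment.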

[4] = test system: spontaneously hypertensive rats (SHR); experiment: Caudal artery systolic pressure of spontaneously hypertensive rats, 8 weeks of continuous medication; type: in vivo, rat; details: x ± s, n = 8
In short: as §2

[5] = 60 mg/kg/d intragastric, week 0
[6] = 60 mg/kg/d intragastric, week 1
[7] = 60 mg/kg/d intragastric, week 2
[8] = 60 mg/kg/d intragastric, week 3
[9] = 60 mg/kg/d intragastric, week 4
[10] = 60 mg/kg/d intragastric, week 5
[11] = 60 mg/kg/d intragastric, week 6
[12] = 60 mg/kg/d intragastric, week 7
[13] = 60 mg/kg/d intragastric, week 8
[14] = 120 mg/kg/d intragastric, week 0
[15] = 120 mg/kg/d intragastric, week 1
[16] = 120 mg/kg/d intragastric, week 2
[17] = 120 mg/kg/d intragastric, week 3
[18] = 120 mg/kg/d intragastric, week 4
[19] = 120 mg/kg/d intragastric, week 5
[20] = 120 mg/kg/d intragastric, week 6
[21] = 120 mg/kg/d intragastric, week 7
[22] = 120 mg/kg/d intragastric, week 8

**Q.** Which “Average dairy food intake” value [1, 5] does the source give for CCCCC(OC(C)=O)c1ccccc1C(=O)O[C@H]1C(=O)O[C@H]2O[C@]34C(=O)OC5C[C@@H](C(C)(C)C)C21[C@@]53[C@@H](O)[C@@H]1OC(=O)[C@@H](C)[C@@]14O (some centres unmarked) [BD] here?
**A.** Its value is 18.7 g/day.

**Q.** And the “Average dairy food intake” value [1, 6]?
**A.** The value was 19.0^▴ g/d.

**Q.** What about the “Average dairy food intake” value [1, 7] of the same compound?
**A.** The value was 19.4^▴ g/d.

**Q.** And the “Average dairy food intake” value [1, 8]?
**A.** Its value is 19.8^▴ g/d.

**Q.** And the “Average dairy food intake” value [1, 9]?
**A.** The value was 20.0^▴▴ g/d.

**Q.** What about the “Average dairy food intake” value [1, 10] of the same compound?
**A.** Its value is 21.3^▴▴ g/d.

**Q.** And the “Average dairy food intake” value [1, 11]?
**A.** The value was 22.6^▴▴ g/d.

**Q.** What about the “Average dairy food intake” value [1, 12] of the same compound?
**A.** The value was 24.3^▴▴ g/d.

**Q.** What about the “Average dairy food intake” value [1, 13] of the same compound?
**A.** The value was 25.0^▴▴ g/d.

**Q.** And the “Average dairy food intake” value [1, 14]?
**A.** Its value is 18.3 g/day.

**Q.** What about the “Average dairy food intake” value [1, 15] of the same compound?
**A.** Its value is 20.1^▴ g/d.

**Q.** And the “Average dairy food intake” value [1, 16]?
**A.** The value was 20.6^▴▴ g/d.

**Q.** And the “Average dairy food intake” value [1, 17]?
**A.** Its value is 21.0^▴▴ g/d.

**Q.** What about the “Average dairy food intake” value [1, 18] of the same compound?
**A.** Its value is 21.5^▴▴ g/d.

**Q.** What about the “Average dairy food intake” value [1, 19] of the same compound?
**A.** Its value is 22.8^▴▴ g/d.

**Q.** What about the “Average dairy food intake” value [1, 20] of the same compound?
**A.** Its value is 23.9^▴▴ g/d.

**Q.** And the “Average dairy food intake” value [1, 21]?
**A.** The value was 25.4^▴▴ g/d.

**Q.** And the “Average dairy food intake” value [1, 22]?
**A.** The value was 26.9^▴▴ g/d.

**Q.** What about the Body weight [2, 5] of the same compound?
**A.** Its Body weight is 229.2 g.

**Q.** And the Body weight [2, 6]?
**A.** Its Body weight is 234.5 g.

**Q.** And the Body weight [2, 7]?
**A.** Its Body weight is 247.1^▴▴ g.

**Q.** What about the Body weight [2, 8] of the same compound?
**A.** Its Body weight is 252.2 g.

**Q.** And the Body weight [2, 9]?
**A.** Its Body weight is 257.2 g.

**Q.** What about the Body weight [2, 10] of the same compound?
**A.** The Body weight was 262.4 g.

**Q.** And the Body weight [2, 11]?
**A.** Its Body weight is 270.4^▴ g.

**Q.** And the Body weight [2, 12]?
**A.** The Body weight was 280.2^▴▴ g.

**Q.** And the Body weight [2, 13]?
**A.** Its Body weight is 290.5^▴▴ g.

**Q.** What about the Body weight [2, 14] of the same compound?
**A.** The Body weight was 230.9 g.

**Q.** And the Body weight [2, 15]?
**A.** Its Body weight is 252.0^▴▴ g.

**Q.** And the Body weight [2, 16]?
**A.** The Body weight was 257.5^▴▴ g.

**Q.** And the Body weight [2, 17]?
**A.** The Body weight was 263.9^▴▴ g.

**Q.** And the Body weight [2, 18]?
**A.** The Body weight was 270.8^▴▴ g.

**Q.** And the Body weight [2, 19]?
**A.** Its Body weight is 281.2^▴▴ g.

**Q.** What about the Body weight [2, 20] of the same compound?
**A.** The Body weight was 291.0^▴▴ g.

**Q.** And the Body weight [2, 21]?
**A.** Its Body weight is 304.7^▴▴ g.

**Q.** What about the Body weight [2, 22] of the same compound?
**A.** The Body weight was 321.7^▴▴ g.

**Q.** And the solubility (Water solubility test)?
**A.** The solubility was 250 µg/mL (≈ 381 µM).

**Q.** What about the Systolic pressure ([3]; 60 mg/kg intragastric single administration, 30 min) of the same compound?
**A.** Its Systolic pressure is 157.74 ± 9.28 mmHg.

**Q.** And the Systolic pressure ([3]; 60 mg/kg intragastric single administration, 60 min)?
**A.** Its Systolic pressure is 152.67 ± 13.52 mmHg.

**Q.** What about the Systolic pressure ([3]; 60 mg/kg intragastric single administration, 90 min) of the same compound?
**A.** Its Systolic pressure is 151.60 ± 12.04 mmHg.

**Q.** And the Systolic pressure ([3]; 60 mg/kg intragastric single administration, 120 min)?
**A.** The Systolic pressure was 155.68 ± 10.15 mmHg.

**Q.** And the Systolic pressure ([3]; 60 mg/kg intragastric single administration, before administration)?
**A.** The Systolic pressure was 163.64 ± 14.02 mmHg.

**Q.** What about the Systolic pressure ([3]; 120 mg/kg intragastric single administration, 30 min) of the same compound?
**A.** Its Systolic pressure is 148.47 ± 10.87 mmHg.

**Q.** And the Systolic pressure ([3]; 120 mg/kg intragastric single administration, 60 min)?
**A.** Its Systolic pressure is 151.75 ± 10.68 mmHg.

**Q.** And the Systolic pressure ([3]; 120 mg/kg intragastric single administration, 90 min)?
**A.** Its Systolic pressure is 157.25 ± 14.38 mmHg.

**Q.** And the Systolic pressure ([3]; 120 mg/kg intragastric single administration, 120 min)?
**A.** Its Systolic pressure is 160.49 ± 14.76 mmHg.

**Q.** And the Systolic pressure ([3]; 120 mg/kg intragastric single administration, before administration)?
**A.** Its Systolic pressure is 164.57 ± 13.25 mmHg.

**Q.** What about the Systolic pressure ([4]; 60 mg/kg/d intragastric continuous, 1 d, 30 min after administration) of the same compound?
**A.** The Systolic pressure was 156.20 ± 13.41 mmHg.

**Q.** And the Systolic pressure ([4]; 60 mg/kg/d intragastric continuous, 7 d, 30 min after administration)?
**A.** Its Systolic pressure is 152.95 ± 11.03 mmHg.

**Q.** And the Systolic pressure ([4]; 60 mg/kg/d intragastric continuous, 13 d, 30 min after administration)?
**A.** Its Systolic pressure is 155.74 ± 15.25 mmHg.

**Q.** What about the Systolic pressure ([4]; 60 mg/kg/d intragastric continuous, 19 d, 30 min after administration) of the same compound?
**A.** The Systolic pressure was 153.01 ± 14.04 mmHg.

**Q.** And the Systolic pressure ([4]; 60 mg/kg/d intragastric continuous, 25 d, 30 min after administration)?
**A.** The Systolic pressure was 152.30 ± 10.45 mmHg.

**Q.** What about the Systolic pressure ([4]; 60 mg/kg/d intragastric continuous, 35 d, 30 min after administration) of the same compound?
**A.** The Systolic pressure was 157.03 ± 14.08 mmHg.

**Q.** And the Systolic pressure ([4]; 60 mg/kg/d intragastric continuous, 49 d, 30 min after administration)?
**A.** Its Systolic pressure is 153.96 ± 14.74 mmHg.

**Q.** What about the Systolic pressure ([4]; 60 mg/kg/d intragastric continuous, 56 d, 30 min after administration) of the same compound?
**A.** Its Systolic pressure is 154.57 ± 12.48 mmHg.

**Q.** And the Systolic pressure ([4]; 60 mg/kg/d intragastric continuous, before administration)?
**A.** Its Systolic pressure is 163.64 ± 14.02 mmHg.

**Q.** And the Systolic pressure ([4]; 120 mg/kg/d intragastric continuous, 1 d, 30 min after administration)?
**A.** The Systolic pressure was 150.49 ± 15.34 mmHg.

**Q.** And the Systolic pressure ([4]; 120 mg/kg/d intragastric continuous, 7 d, 30 min after administration)?
**A.** Its Systolic pressure is 152.64 ± 11.45 mmHg.

**Q.** And the Systolic pressure ([4]; 120 mg/kg/d intragastric continuous, 13 d, 30 min after administration)?
**A.** Its Systolic pressure is 147.33 ± 13.42 mmHg.

**Q.** What about the Systolic pressure ([4]; 120 mg/kg/d intragastric continuous, 19 d, 30 min after administration) of the same compound?
**A.** The Systolic pressure was 145.49 ± 12.98 mmHg.

**Q.** And the Systolic pressure ([4]; 120 mg/kg/d intragastric continuous, 25 d, 30 min after administration)?
**A.** Its Systolic pressure is 147.66 ± 14.02 mmHg.

**Q.** And the Systolic pressure ([4]; 120 mg/kg/d intragastric continuous, 35 d, 30 min after administration)?
**A.** The Systolic pressure was 145.61 ± 9.47 mmHg.

**Q.** And the Systolic pressure ([4]; 120 mg/kg/d intragastric continuous, 49 d, 30 min after administration)?
**A.** The Systolic pressure was 148.62 ± 12.04 mmHg.

**Q.** What about the Systolic pressure ([4]; 120 mg/kg/d intragastric continuous, 56 d, 30 min after administration) of the same compound?
**A.** The Systolic pressure was 142.15 ± 13.14 mmHg.

**Q.** And the Systolic pressure ([4]; 120 mg/kg/d intragastric continuous, before administration)?
**A.** Its Systolic pressure is 164.57 ± 13.25 mmHg.
